target: HPK1 (Homo sapiens (Human), UniProt Q92918); assay: HPK1 biochemical enzyme assay (microfluidic mobility shift assay); settings: 1.5 nM HPK1, ATP 1 mM final, 30 min preincubation, 60 min at RT, Caliper EZ Reader; read-out: HPK1 1000UMATP caliper IC50
Procedure, shortened: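 Mobility shift readout of HPK1 activity after a 60 min RT reaction with 1 mM ATP, 1 μM substrate and 5 mM MgCl2. Enzyme/substrate mix was first exposed to compounds for 30 min, using ten-point curves topping at 3 μM final.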

HPK1, sequence (Q92918 whole entry): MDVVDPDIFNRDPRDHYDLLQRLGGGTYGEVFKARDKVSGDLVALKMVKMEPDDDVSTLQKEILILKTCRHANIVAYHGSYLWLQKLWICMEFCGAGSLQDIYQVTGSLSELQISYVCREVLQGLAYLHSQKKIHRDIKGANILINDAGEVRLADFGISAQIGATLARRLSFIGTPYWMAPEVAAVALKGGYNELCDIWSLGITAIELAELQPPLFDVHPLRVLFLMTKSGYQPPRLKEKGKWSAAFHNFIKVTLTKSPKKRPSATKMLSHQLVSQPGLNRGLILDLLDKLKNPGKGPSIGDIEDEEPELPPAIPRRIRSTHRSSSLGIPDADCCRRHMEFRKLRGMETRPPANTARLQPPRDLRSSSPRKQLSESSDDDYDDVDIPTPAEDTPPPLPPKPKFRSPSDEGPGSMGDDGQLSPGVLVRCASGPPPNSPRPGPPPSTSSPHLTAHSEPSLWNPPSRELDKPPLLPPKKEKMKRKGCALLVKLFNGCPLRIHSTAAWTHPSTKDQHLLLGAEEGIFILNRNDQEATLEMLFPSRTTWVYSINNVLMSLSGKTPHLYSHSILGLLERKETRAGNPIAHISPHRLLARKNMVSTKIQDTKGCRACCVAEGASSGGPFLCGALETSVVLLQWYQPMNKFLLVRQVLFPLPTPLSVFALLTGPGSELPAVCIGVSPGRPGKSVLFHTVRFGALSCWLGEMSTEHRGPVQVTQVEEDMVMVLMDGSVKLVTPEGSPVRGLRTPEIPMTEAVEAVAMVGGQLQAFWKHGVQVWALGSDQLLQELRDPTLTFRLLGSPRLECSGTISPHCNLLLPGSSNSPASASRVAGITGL

IC50 | Structure (SMILES)
> 1000 nM | O=C1NCc2c(-c3cnc4cc(F)ccn34)ccc(Nc3cccc(N4CC(O)C4)n3)c21 [I-323, 4-(7-fluoroimidazo [1,2-a]pyridin-3-yl)-7-((6-(3-hydroxyazeti-din-1-yl)pyridin-2-yl)amino)isoin-dolin-1-one]
> 1000 nM | O=C1NCc2c(-c3cnc4cnccn34)ccc(Nc3cc(N4CCC(O)CC4)ccn3)c21 [I-324, 7-((4-(4-hydroxy-piperidin-1-yl)pyridin-2-yl)amino)-4-(imidazo[1,2-a]pyrazin-3-yl)isoindolin-1-one]
< 100 nM | CN1C[C@@H](c2ccc(Nc3ccc(-c4cnc5cnccn45)c4c3C(=O)NC4)nc2)CCC1=O [I-325, (R)-4-(imidazo[1,2-a]pyrazin-3-yl)-7-((5-(1-methyl-6-oxopiperidin-3-yl)pyridin-2-yl)amino)isoin-dolin-1-one]
< 100 nM | CN1C[C@H](c2ccc(Nc3ccc(-c4cnc5cnccn45)c4c3C(=O)NC4)nc2)CCC1=O [I-326, (S)-4-(imidazo[1,2-a]pyrazin-3-yl)-7-((5-(1-methyl-6-oxopiperidin-3-yl)pyridin-2-yl)amino)isoin-dolin-1-one]
< 100 nM | CN1CCN(c2cccc(Nc3cnc(-c4ccnc5c4ccn5C)c4c3C(=O)NC4)n2)CC1 [I-327, 4-(1-methyl-1H-pyrrolo[2,3-b]pyridin-4-yl)-7-((6-(4-methylpiperazin-1-yl)pyridin-2-yl)amino)-2,3-dihydro-1H-pyrrolo[3,4-c]pyridin-1-one]
< 100 nM | O=C1NCc2c(-c3cnc4cnccn34)ccc(Nc3ccc(N4CCC[C@H](O)CC4)cn3)c21 [I-328, (S)-7-((5-(4-hydroxyazepan-1-yl)pyridin-2-yl)amino)-4-(imidazo[1,2-a]pyrazin-3-yl)isoindolin-1-one]
< 100 nM | O=C1NCc2c(-c3cnc4cnccn34)ccc(Nc3ccc(N4CCC[C@@H](O)CC4)cn3)c21 [I-329, (R)-7-((5-(4-hydroxyaze-pan-1-yl)pyridin-2-yl)amino)-4-(imidazol[1,2-a]pyrazin-3-yl)isoindolin-1-one]
100 to 1000 nM | O=C1NCc2c(-c3cnn4c3CCCC4)ncc(Nc3ccc(N4CCC(O)CC4)cn3)c21 [I-330, 7-((5-(4-hydroxypiperidin-1-yl)pyridin-2-yl)amino)-4-(4,5,6,7-tetrahydropyra-zolo[1,5-a]pyridin-3-yl)-2,3-dihydro-1H-pyrrolo[3,4-c]pyridin-1-one]
< 100 nM | CN1C[C@H](c2ccc(Nc3ccc(-c4cnc5cnccn45)c4c3C(=O)NC4)nc2)CC1=O [I-331, (S)-4-(imidazo[1,2-a]pyrazin-3-yl)-7-((5-(1-methyl-5-oxopyrrolidin-3-yl)pyridin-2-yl)amino)isoin-dolin-1-one]
< 100 nM | O=C1NCc2c(-c3cnc4cc(F)ccn34)ccc(Nc3ccc(N4CCOCC45CC5)cn3)c21 [I-335, 7-((5-(7-oxa-4-azaspiro[2.5]octan-4-yl)pyridin-2-yl)amino)-4-(7-fluoroimidazo [1,2-a]pyridin-3-yl)isoindolin-1-one]
< 100 nM | CN1CC[C@H](c2ccc(Nc3ccc(-c4cnc5cc(F)ccn45)c4c3C(=O)NC4)nc2)C1=O [I-336, (R)-4-(7-fluoroimidazo [1,2-a]pyridin-3-yl)-7-((5-(1-methyl-2-oxopyrrolidin-3-yl)pyridin-2-yl)amino)isoin-dolin-1-one]
< 100 nM | O=C1NCc2c(-c3cnc4cc(F)ccn34)ccc(Nc3ccc(N4CCOC[C@H](O)C4)cn3)c21 [I-338, (R)-4-(7-fluoroimidazo [1,2-a]pyridin-3-yl)-7-((5-(6-hydroxy-1,4-oxazepan-4-yl)pyridin-2-yl)amino)isoin-dolin-1-one]
< 100 nM | O=C1NCc2c(-c3cnc4cc(F)ccn34)ccc(Nc3ccc(N4CCOC[C@@H](O)C4)cn3)c21 [I-339, (S)-4-(7-fluoroimidazo [1,2-a]pyridin-3-yl)-7-((5-(6-hydroxy-1,4-oxazepan-4-yl)pyridin-2-yl)amino)isoin-dolin-1-one]
> 1000 nM | O=C1NCc2c(-c3cnc4cc(F)ccn34)ccc(Nc3cccc(N4CCCC4=O)n3)c21 [I-340, 4-(7-fluoroimidazo [1,2-a]pyridin-3-yl)-7-((6-(2-oxopyrrolidin-1-yl)pyridin-2-yl)amino)isoin-dolin-1-one]
< 100 nM | Cn1ccc2c(-c3ncc(Nc4ccc(N5CCC(O)(CN6CCOCC6)CC5)cn4)c4c3CNC4=O)ccnc21 [I-343, 7-((5-(4-hydroxy-4-(morpholinomethyl)piperidin-1-yl)pyridin-2-yl)amino)-4-(1-methyl-1H-pyrrolo[2,3-b]pyridin-4-yl)-2,3-dihydro-1H-pyrrolo[3,4-c]pyridin-1-one]
< 100 nM | CC(C)(O)[C@@H]1CN(c2ccc(Nc3ccc(-c4cnc5cc(F)ccn45)c4c3C(=O)NC4)nc2)CCO1 [I-344]

IC50 | Structure (SMILES)
< 100 nM | CC(C)(O)[C@H]1CN(c2ccc(Nc3ccc(-c4cnc5cc(F)ccn45)c4c3C(=O)NC4)nc2)CCO1 [I-345, (R)-4-(7-fluoroimidazo[1,2-a]pyridin-3-yl)-7-((5-(2-(2-hydroxypropan-2-yl)morpholino)pyridin-2-yl)amino)isoindolin-1-one]
< 100 nM | O=C1NCc2c(-c3cnc4cc(F)ccn34)ccc(Nc3ccc(N4CC[C@H](F)[C@@H](O)C4)cn3)c21 [I-346, 7-((5-((3S.4S)-4-fluoro-3-hydroxypiperidin-1-yl)pyridin-2-yl)amino)-4-(7-fluoroimidazo [1,2-a]pyridin-3-yl)isoindolin-1-one]
< 100 nM | O=C1NCc2c(-c3cnc4cc(F)ccn34)ccc(Nc3ccc(N4CC[C@@H](F)[C@H](O)C4)cn3)c21 [I-347, 7-((5-((3R,4R)-4-fluoro-3-hydroxy-piperidin-1-yl)pyridin-2-yl)amino)-4-(7-fluoroimidazo [1,2-a]pyridin-3-yl)isoindolin-1-one]
< 100 nM | O=C1NCc2c(-c3cnc4cc(F)ccn34)ccc(Nc3ccc(N4CCC(O)(CN5CCOCC5)CC4)cn3)c21 [I-348, 4-(7-fluoroimidazo [1,2-a]pyridin-3-yl)-7-((5-(4-hydroxy-4-(morpholino-methyl)piperidin-1-yl)pyridin-2-yl)amino)isoin-dolin-1-one]
< 100 nM | C[C@H]1C[C@@H](O)CCN1c1ccc(Nc2ccc(-c3cnc4cnccn34)c3c2C(=O)NC3)nc1 [I-349, 7-((5-((2S,4S)-4-hydroxy-2-methylpiperidin-1-yl)pyridin-2-yl)amino)-4-(imidazo[1,2-a]pyrazin-3-yl)isoindolin-1-one]
< 100 nM | C[C@@H]1C[C@H](O)CCN1c1ccc(Nc2ccc(-c3cnc4cnccn34)c3c2C(=O)NC3)nc1 [I-350, 7-((5-((2R,4R]-4-hydroxy-2-methylpiperidin-1-yl)pyridin-2-yl)amino)-4-(imidazo[1,2-a]pyrazin-3-yl)isoindolin-1-one]
< 100 nM | C[C@@H]1C[C@@H](O)CCN1c1ccc(Nc2ccc(-c3cnc4cnccn34)c3c2C(=O)NC3)nc1 [I-351, 7-((5-((2R,4S)-4-hydroxy-2-methylpiperidin-1-yl)pyridin-2-yl)amino)-4-(imidazo[1,2-a]pyrazin-3-yl)isoindolin-1-one]
< 100 nM | C[C@H]1C[C@H](O)CCN1c1ccc(Nc2ccc(-c3cnc4cnccn34)c3c2C(=O)NC3)nc1 [I-352, 7-((5-((2S,4R)-4-hydroxy-2-methylpiperidin-1-yl)pyridin-2-yl)amino)-4-(imidazo[1,2-a]pyrazin-3-yl)isoindolin-1-one]
< 100 nM | CC(C)(O)[C@H]1CCCN(c2ccc(Nc3cnc(-c4cnn5c4CCCC5)c4c3C(=O)NC4)nc2)C1 [I-355, (S)-7-((5-(3-(2-hydroxy-propan-2-yl)piperidin-1-yl)pyridin-2-yl)amino)-4-(4,5,6,7-tetrahydropyra-zolo[1,5-a]pyridin-3-yl)-2,3-dihydro-1H-pyrrolo[3,4-c]pyridin-1-one]
< 100 nM | O=C1NCc2c(-c3cnc4cnccn34)ccc(Nc3ccc(N4CCOC(CO)C4)cn3)c21 (centres unmarked) [I-358, 7-((5-(2-(hydroxymeth-yl)morpholino)-pyridin-2-yl)amino)-4-(imidazo[1,2-a]pyrazin-3-yl)isoindolin-1-one]
< 100 nM | O=C1NCc2c(-c3cnc4cc(F)ccn34)ccc(Nc3ccc(N4CC[C@H](F)[C@H](O)C4)cn3)c21 [I-359, 7-((5-((3R,4S)-4-fluoro-3-hydroxy-piperidin-1-yl)pyridin-2-yl)amino)-4-(7-fluoroimidazo [1,2-a]pyridin-3-yl)isoindolin-1-one]
< 100 nM | Cc1csc2c(-c3ccc(Nc4ccc(N5CCC(O)CC5)cn4)c4c3CNC4=O)ccnc12 [I-361, 7-((5-(4-hydroxypip-eridin-1-yl)pyridin-2-yl)amino)-4-(3-methylthieno [3,2-b]pyridin-7-yl)isoindolin-1-one]
< 100 nM | Cn1ccc2c(-c3ccc(Nc4ccc(N5CCC(O)CC5)cn4)c4c3CNC4=O)cnc-2c1 [I-362, 7-((5-(4-hydroxy-piperidin-1-yl)pyridin-2-yl)amino)-4-(6-methyl-6H-pyrrolo[2,3-c]pyridin-3-yl)isoindolin-1-one]
< 100 nM | CN1CCN(CC2(O)CCN(c3ccc(Nc4ccc(-c5cnc6cc(F)ccn56)c5c4C(=O)NC5)nc3)CC2)CC1 [I-365, 4-(7-fluoroimidazo [1,2-a]pyridin-3-yl)-7-((5-(4-hydroxy-4-((4-methylpiperazin-1-yl)methyl)pip-eridin-1-yl)pyridin-2-yl)amino)isoin-dolin-1-one]
< 100 nM | CN(C)CC1(O)CCN(c2ccc(Nc3ccc(-c4cnc5cc(F)ccn45)c4c3C(=O)NC4)nc2)CC1 [I-366, 7-((5-(4-((dimethylamino)-methyl)-4-hydroxypiperidin-1-yl)pyridin-2-yl)amino)-4-(7-fluoroimidazo [1,2-a]pyridin-3-yl)isoindolin-1-one]
< 100 nM | O=C1NCc2c(-c3cnn4c3CCCC4)ncc(Nc3ccc(N4CCOCC4)cn3)c21 [I-367, 7-((5-morpholinopyridin-2-yl)amino)-4-(4,5,6,7-tetrahdropyra-zolo[1,5-a]pyridin-3-yl)-2,3-dihydro-1H-pyrrolo[3,4-c]pyridin-1-one]
